Measurements as given in PubChem BioAssay (NCI).
Values joined by “and” are separate entries in the source; they are usually repeats but may differ in a detail not shown here. Identical values can stand only once.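 Tested at 5 concentrations; 48 h exposure; 96-well plates; endpoints linearly interpolated, else capped at highest concentration. At the GI50, growth is halved. TGI denotes the concentration required for complete inhibition of growth.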 Where a SMILES comes first, the peptide text is derived from it. [ ]: non-standard residue; d: D form. Phe(F5) = N[CH](Cc1c(F)c(F)c(F)c(F)c1F)C(=O)O

What was measured:
Assay in all cases: DTP human tumour cell line panel, 48 h
[1] = test system: ACHN renal
[2] = test system: CCRF-CEM leukemia
[3] = test system: COLO 205 colon
[4] = test system: DMS 114 small cell lung
[5] = test system: HOP-62 NSCLC
[6] = test system: M19-MEL melanoma
[7] = test system: MCF7 breast
[8] = test system: OVCAR-4 ovarian
[9] = test system: OVCAR-5 ovarian
[10] = test system: SR leukemia

| Compound | GI50 [1] [µM] | TGI [1] | GI50 [2] [µM] | TGI [2] | GI50 [3] | TGI [3] | TGI [4] | GI50 [5] [µM] | TGI [5] | TGI [6] | TGI [7] [µM] | GI50 [8] [µM] | TGI [8] | GI50 [9] [µM] | TGI [9] | GI50 [10] [µM] | TGI [10] | GI50 [4] [µM] | GI50 [6] [µM] | GI50 [7] [µM] |
| --- | --- | --- | --- | --- | --- | --- | --- | --- | --- | --- | --- | --- | --- | --- | --- | --- | --- | --- | --- | --- |
| C=C(C)[C@@H]1CC=C(CO)CC1 | > 10 | > 10 µM and 657 µM | > 10 | > 10 µM and 440 µM | > 10 µM | > 10 µM and 768 µM | 709 µM | > 10 | > 10 µM and 961 µM | 793 µM | > 10 | > 10 | > 10 µM and 1130 µM | > 10 | > 10 µM and 798 µM | > 10 | > 10 µM and 1080 µM |  |  |  |
| CC[C@](C)(O)C(=O)O[C@H]1C(=O)O[C@@H]2C[C@H]3C(C)=CC(=O)[C@@H](O)[C@]3(C)[C@H]3[C@@]4(O)OC[C@]32[C@@H]1[C@@H](C)[C@H]4O |  | 1.69 µM | 0.0897 |  | 1.92 µM | 7.24 µM and 3.35 µM | < 0.0257 µM | 0.165 | 1.19 µM and 0.368 µM | 0.0957 µM and 0.069 µM |  | 0.112 | 1.26 µM and 0.923 µM | 0.762 | 8.16 µM and 6.86 µM |  | 2.55 µM | < 0.0124 | 0.0233 | 0.335 |
| COC(=O)C(CC(C)C)NC(=O)C(Cc1cnc[nH]1)NC(=O)CNC(=O)C(NC(=O)C(C)NC(=O)C(Cc1c[nH]c2ccccc12)NC(=O)C(CCC(=O)O)NC(=O)C(N)Cc1c(F)c(F)c(F)c(F)c1F)C(C)C (stereo not drawn) (H-[Phe(F5)]EWAVGHL-OMe; configuration not given here) | > 100 | > 100 µM | > 100 | > 100 µM | > 100 µM | > 100 µM | > 100 µM | > 100 | > 100 µM | > 100 µM | > 12.5 | > 100 | > 100 µM |  | > 12.5 µM | > 100 | > 100 µM |  |  |  |
| CCc1ccc(NCc2cc(OC)c(OC)c(OC)c2)cc1 |  | 66.7 µM and 77.4 µM |  | > 77.9 µM | 0.251 µM and 0.333 µM | 1.3 µM and 1.47 µM | 4.9 µM and 10.2 µM |  | 52.4 µM and 35.5 µM | 35.3 µM and > 87.8 µM | 24.8 |  | > 100 µM | 4.09 | > 76.1 µM |  | 44.6 µM and > 100 µM |  |  |  |
| CC1CC2C(=O)NC(=O)C2c2[nH]c3ccccc3c21 (stereo not drawn) |  | > 100 µM |  | > 100 µM |  | > 100 µM | > 100 µM |  | > 100 µM | > 100 µM |  |  | > 100 µM |  | > 100 µM |  | > 100 µM |  |  |  |
| COC12C=CC(CC1)c1c(O)ccc(O)c12 (stereo not drawn) |  | > 61.4 µM |  | 65.1 µM |  | 57 µM | > 100 µM |  | > 100 µM | > 55.4 µM |  |  | 46.6 µM |  | > 100 µM |  | 36.3 µM |  |  |  |
| COC(=O)c1[nH]c(=S)[nH]c(=O)c1-c1ccc(Cl)cc1 |  | > 50 µM |  | > 50 µM |  | > 50 µM | > 50 µM |  | > 50 µM | > 50 µM |  |  | > 50 µM |  | > 50 µM |  | > 50 µM |  |  |  |
